Laboratory results as given in patent publication US9844595B2, “Composition comprising a complex of (+)-catechin and amino acid for the treatment and prevention of cancer” (VALORE, priority 2013, dated 2017).
Where two headings read alike, the source gives them in different places.

Key:
collagen of rat skin = test: Total incorporation and incorporation into collagen of 3H-proline in the skin; format: in vivo, Wistar rats; conditions: for increase in the level of incorporation: 100 mg/kg by gavage, vs control subgroup
Description: To do this, a study was carried out in vivo on a batch of 24 female Wistar rats weighing from 95 to 115 g, divided into two groups C and D, each of 12 rats. For each group, the radioactive 3H-hydroxyproline, the specific activity of which is 13.6 Ci/10-3 mol, was administered to all the animals by intraperitoneal injection of 3H-proline at a dose, relative to the weight of the individuals, of 1 mCi/kg, which represents an activity in terms of radioactive 3H-proline of 100 μCi/individual.
6 rats of each group received a treatment based on monomeric (+)-catechin by gavage in a proportion of 100 mg/kg for 5 days before sacrifice. […] The group C received monomeric (+)-catechin hydrochlorolysinate, while the group D received monomeric (+)-catechin ascorbolysinate.
In table 8, the level of incorporation is measured by the number of disintegrations of the radioactive 3H-hydroxyproline per minute (dpm) per mg of dry weight. The higher this number, the higher the concentration of 3H-hydroxyproline.
In this comparative example, a group E of 12 Wistar rats weighing from 95 to 115 g, in which radioactive 3H-hydroxyproline, the specific activity of which is 13.6 Ci/10-3 mol, was administered to all the individuals by intraperitoneal injection of 3H-proline at a dose, relative to the weight of the individuals, of 1 mCi/kg, which represents an activity in terms of radioactive 3H-proline of 100 μCi/individual.
6 rats of each group received a treatment based on pure monomeric (+)-catechin by gavage in a proportion of 100 mg/kg for 5 days before sacrifice.

[1] = for Δct: vs CP
Description: The experimental results described below were obtained on the basis of a study carried out in healthy human beings and in healthy Wistar rats weighing approximately 250 grams.
An acclimation period was observed before beginning the experiments.
The rats received an administration per os of a volume of 5 ml of a solution of active product.
(§1) With regard to taking the blood samples from the rats and from the human beings, the blood was collected in tubes internally coated with EDTA and was then centrifuged at 3000 rpm (revolutions per minute) at ambient temperature for 45 min, and then for 15 min at a temperature of 4° C. The plasma was then collected and stored at −70° C. before analysis.
(§2) The analytical technique (LC-MS/MS for Liquid Chromatography coupled to tandem Mass Spectrometry) for measuring the active substance in the blood was based on the method described by Mata-Bilbao et al., published in 2007 in the Journal of Agricultural and Food Chemistry, volume 55, page 8857.
(§3) The free (+)-catechin was extracted from the plasma with a solution of phosphoric acid, EDTA and ascorbic acid and was then purified by SPE (solid phase extraction); in particular, it is an Oasis™ HLB extraction which is analyzed by LC-MS/MS. The quantification was carried out according to a standard calibration procedure with (+/−)-catechin-2,3,4-^13C3 as internal standard (SI).
The procedure is identical with regard to the extraction and the quantification of free quercetin or ECGC in the blood.
With regard to the extraction and quantification of the total (+)-catechin, the procedure is the same as that applied to the free (+)-catechin, with the exception of the fact that an additional step prior to the purification by SPE is carried out.
(§4) Each of the mixtures is then solubilized in water.
Each of the mixtures is solubilized in water.

[2] = Bioavailability after oral administration in human beings (free monomeric (+)-catechin in plasma, LC-MS/MS)
Description: as §1, §2, §3
This complex salt is administered to a group A of 5 healthy volunteers.
This ct parameter makes it possible to calculate, from the data of table 1, the bioavailability of the (+)-catechin expressed in ng h/ml.

[3] = format: in vivo, Wistar rats; conditions: in a period of one hour following the injection
Excerpt: as §4

Solubility in water = format: physicochemical
[4] = tested on: monoclonal immunoglobulins (IgM); test: Treatment of a patient with lymphoplasmocytic lymphoma (Waldenström macroglobulinemia type): IgM assay; format: in vivo, human; conditions: one patient
Description: In the first patient a lymphoplasmocytic lymphoma (of Waldenström macroglobulinemia type) was detected during a post-operative blood test on day Do. The diagnosis is based on the electrophoretic detection of a monoclonal peak of immunoglobulins (IgM). This diagnosis was reconfirmed and the peak was assayed during a second analysis using the same detection by electrophoresis.
These immunoglobulins are found at a high concentration in the blood and in the urine. They therefore constitute real tumor markers. The assaying thereof gives an account of the number of sick cells and the extent of the disease and, consequently, makes it possible to monitor its progression under treatment.
Successive blood tests gave the following data for the IgM assay (in mg per 100 ml of plasma): […]

[5] = tested on: clear cell renal carcinoma; test: Treatment of a patient with renal adenocarcinoma; format: in vivo, human; conditions: DT+19 months, reconfirmed DT+23 months; one patient, 500 mg per day orally, after nephrectomy, dissections and radiotherapy
Description: In the second patient, a left subclavicular cervical adenopathy was first of all detected on day Do. Next, 2 weeks later, a left renal adenocarcinoma was detected for this patient, which was followed by a nephrectomy of the left kidney 3 days after the detection of the adenocarcinoma in this kidney.
Thereafter, on day D0+3 months, a left cervical lymph node dissection is performed on the patient. This procedure was followed by a series of 15 radiotherapy sessions.
Starting from day D0+15 months (that is to say on day DT), the patient was orally administered a tablet of 500 mg of (+)-catechin hydrochlorolysinate per day.
On day DT+15 months, the appearance of a pathological mediastinal adenopathy (45 cm^3 in volume) was observed and required a mediastinal lymph node dissection followed by a pulmonary examination on day DT+17 months.

gastric mucosa = test: Incidence of gastric ulcers and histamine level in the gastric mucosa in Mastomys; format: in vivo
Description: In this example, a sample of n=48 Mastomys are sensitized a first time by intraperitoneal injection of 3 μg of ovalbumin dissolved in 0.2 ml of saline solution containing 1 mg of aluminum hydroxide which brings about anti-immunoglobulin E (IgE) and G (IgG) antibodies. After 7 days, a second injection of 1 mg of ovalbumin in 0.01 ml of saline solution is given in the gastric mucosa at the level of the corpus of the anesthetized animals, which causes an ulcerated lesion at the actual site of the injection.
The 48 rats are divided up into three groups: one of 24 and two of 12 individuals. The first group of 24 individuals (G1) received a placebo (concentrated NaCl solution at 0.15 M).
The histamine level is measured for the G1, G2 and G3 groups on the basis of a sample of n=12 individuals.

[6] = free (+)-catechin, rats, oral, dose equivalent to 25 mg/kg (+)-catechin, 3 Wistar rats
[7] = free (+)-catechin, rats, per os, dose equivalent to 25 mg/kg (+)-catechin, 5 Wistar rats, pulverulent mixture solubilized in water
[8] = total (+)-catechin (free and conjugated), rats, oral, dose equivalent to 25 mg/kg, 3 Wistar rats
[9] = free (+)-catechin, 1 g pure monomeric (+)-catechin, group B
[10] = free monomeric (+)-catechin in plasma
[11] = treated, 100 mg/kg by gavage for 5 days, per mg of dry weight
[12] = G3, n = 12, 100 mg intraperitoneally
[13] = oral administration, vs placebo

Oc1cc(O)c2c(c1)O[C@H](c1ccc(O)c(O)c1)[C@@H](O)C2 [CP, (+)-catechin]
increase in the level of incorporation (collagen of rat skin): +16% | T (max) [1, 6]: 0.5 h | Δct [1, 6]: 0% | Δct (difference of ct to CP, related back to CP) ([1]; free (+)-catechin, rats, oral, dose equivalent to 100 mg/kg (+)-catechin): 0% | T (max) ([1]; free (+)-catechin, rats, oral, dose equivalent to 100 mg/kg (+)-catechin, 5 Wistar rats): 1 h | T (max) [1, 7]: 1 h | c (max) [1, 7]: 580 ng/mL | ct [1, 7]: 91 935 ng min/ml | Δct ([1]; free (+)-catechin, rats, per os, dose equivalent to 25 mg/kg, 5 Wistar rats): 0% | decrease of the peak content of free monomeric (+)-catechin in the blood ([1]; oral absorption, after two hours): 50% | T (max) [1, 8]: 0.5 h | c (max) [1, 8]: 2200 ng/mL | Δct ([1]; total (+)-catechin, rats, oral, dose equivalent to 25 mg/kg, 3 Wistar rats): 0% | c (max) related back to 0.92 g of pure (+)-catechin [2]: 258 ng/mL | ct related back to 0.92 g of pure (+)-catechin ([2]; equivalent amount of 0.92 g pure (+)-catechin): 832 ± 150 ng·h/mL | ct related back to 0.920 g of pure (+)-catechin ([2]; equivalent amount of 0.920 g pure (+)-catechin): 49 920 ng min/ml | T (max) [2, 9]: 1.20 h | c (max) [2, 9]: 280 ng/mL | ct (total concentration, area under the curve over six hours) ([2]; free (+)-catechin, 1 g pure monomeric (+)-catechin, group B, listed as pure (+)-catechin): 904 ± 163 ng·h/mL | T (max) [2, 10]: 1.33 h | c (max) for 1 g of monomeric (+)-catechin ingested as it is [2, 10]: 280 ng | content of free monomeric (+)-catechin eliminated from the blood [3]: ~90% | solubility in water compared with the complexed form (Solubility in water): 400 times lower

monomeric (+)-catechin hydrochlorolysinate [[C:Lys:HCl/1:1:1]]
IgM level in the blood ([4]; DT + 4 months, tablet of 500 mg per day from day DT (IgM 2931 on DT)): 2417 mg/100 ml | IgM level in the blood ([4]; DT + 9 months, tablet of 500 mg per day from day DT): 2410 mg/100 ml | IgM level in the blood ([4]; DT + 15 months, tablet of 500 mg per day from day DT): 2412 mg/100 ml | status of the clear cell renal carcinoma (consultation report) [5]: complete remission | increase in the level of incorporation (collagen of rat skin): +15% | level of incorporation into collagen (IC) of 3H-hydroxyproline in rat skin (collagen of rat skin; [11]): 1343 ± 48 dpm/mg | level of total incorporation (IT) of 3H-hydroxyproline in rat skin (collagen of rat skin; [11]): 6248 ± 124 dpm/mg | HL (histamine level in the gastric mucosa) (gastric mucosa; G2, n = 12, per os twice a day (2×300 mg)): 37.91 ± 3.73 10^−6 mg/kg of protein | NU (number of animals exhibiting a gastric ulcer) (gastric mucosa; G2, n = 12, per os twice a day (2×300 mg), two days before and three days after injection): 5 | HL (histamine level in the gastric mucosa) (gastric mucosa; [12]): 34.98 ± 3.52 10^−6 mg/kg of protein | NU (number of animals exhibiting a gastric ulcer) (gastric mucosa; [12]): 6 | decrease in the histamine level (HL) in the gastric mucosa (gastric mucosa; [13]): −18% | decrease in the number of animals exhibiting a gastric ulcer (NU) (gastric mucosa; [13]): −72%
